# In US10590129B2 (Incozen Therapeutics Pvt. Ltd., priority 2010, dated 2020):
# What was measured:
# MKN-45 cells = test: Inhibition of MKN-45 proliferation (MTT); format: cell-based, human; conditions: Homo sapiens, MKN-45, MKN-45 proliferation
# Method in brief: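 Viability measured by MTT dye reduction on day 5 after compound addition on day 2 to MKN-45 gastric adenocarcinoma cells (high Met expression) seeded on day 1 in complete medium.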
Structure (SMILES),melting point [°C],GI50 (MKN-45 cells) [µM],inhibition at 0.1 µM (MKN-45 cells) [%],inhibition at 1 µM (MKN-45 cells) [%]
"COCCOc1ccc(-c2ccc3nnn(Cc4ccc5ncccc5c4)c3n2)cc1F [Ex 86, 6-((5-(3-Fluoro-4-(2-methoxyethoxy)phenyl)-3H-[1,2,3]triazolo[4,5-b]pyridin-3-yl)methyl)quinoline]",122 to 124,,< 25,75 to 100
"c1cnc2ccc(Cn3cnc4ccc(-c5cn[nH]c5)nc43)cc2c1 [Ex 147, 6-((5-(1H-Pyrazol-4-yl)-3H-imidazo[4,5-b]pyridin-3-yl)methyl)quinoline]",214 to 216,,,< 25
"Cc1ccc(-c2ccc3nnn(Cc4ccc5ncccc5c4)c3n2)s1 [Ex 194, 6-((5-(5-Methylthiophen-2-yl)-3H-[1,2,3]triazolo[4,5-b]pyridin-3-yl)methyl)quinoline]",154 to 156,,< 25,50 to 75
"COc1ccc(-c2ccc3nnn(Cc4ccc5ncccc5c4)c3n2)cc1 [Ex 1, 6-((5-(4-Methoxyphenyl)-3H-[1,2,3]triazolo[4,5-b]pyridin-3-yl)methyl)quinoline]",144 to 146,,,25 to 50
"CCCNC(=O)c1ccc(-c2ccc3nnn(C(C)(C)c4ccc5ncccc5c4)c3n2)cc1F [Ex 105, 2-Fluoro-N-propyl-4-(3-(2-(quinolin-6-yl)propan-2-yl)-3H-[1,2,3]triazolo[4,5-b]pyridin-5-yl)benzamide]",162 to 164,,< 25,< 25
"OCc1cc(-c2ccc3nnn(Cc4ccc5ncccc5c4)c3n2)cs1 [Ex 188, (4-(3-(Quinolin-6-ylmethyl)-3H-[1,2,3]triazolo[4,5-b]pyridin-5-yl)thiophen-2-yl) methanol]",188 to 191,0.05 to 0.15,75 to 100,
"c1cnc2ccc(Cn3nnc4ccc(-c5ccc(N6CCOCC6)nc5)nc43)cc2c1 [Ex 195, 4-(5-(3-(Quinolin-6-ylmethyl)-3H-[1,2,3]triazolo[4,5-b]pyridin-5-yl)pyridin-2-yl)morpholine]",183 to 185,,25 to 50,50 to 75

# The next lines start with results.
melting point [°C],GI50 (MKN-45 cells) [µM],Structure (SMILES),inhibition at 0.1 µM (MKN-45 cells) [%],inhibition at 1 µM (MKN-45 cells) [%]
227 to 230,,"CNC(=O)c1ccc(-c2ccc3nnn(Cc4ccc5ncccc5c4)c3n2)cc1Cl [Ex 109, 2-Chloro-N-methyl-4-(3-(quinolin-6-ylmethyl)-3H-[1,2,3]triazolo[4,5-b]pyridin-5-yl)benzamide]",75 to 100,
177 to 179,,"CN(C)C(=O)CNC(=O)c1ccc(-c2ccc3nnn(Cc4ccc5ncccc5c4)c3n2)cc1F [Ex 77, N-(2-(dimethylamino)-2-oxoethyl)-2-fluoro-4-(3-(quinolin-6-ylmethyl)-3H-[1,2,3]triazolo[4,5-b]pyridin-5-yl)benzamide]",50 to 75,50 to 75
105 to 107,,"Cl.O=C(NC1CC1)c1ccc(-c2ccc3nnn(Cc4ccc5ncccc5c4)c3n2)cc1F [Ex 89, N-Cyclopropyl-2-fluoro-4-(3-(quinolin-6-ylmethyl)-3H-[1,2,3]triazolo[4,5-b]pyridin-5-yl)benzamide hydrochloride]",75 to 100,< 25
210 to 212,,"CC(C)(C)NC(=O)c1ccc(-c2ccc3nnn(Cc4ccc5ncccc5c4)c3n2)cc1F [Ex 60, N-tert-Butyl-2-fluoro-4-(3-(quinolin-6-ylmethyl)-3H-[1,2,3]triazolo[4,5-b]pyridin-5-yl) benzamide]",< 25,< 25
156 to 159,,"CC(C)(c1ccc2ncccc2c1)n1nnc2ccc(-c3ccc(C(=O)NC4CC4)c(F)c3)nc21 [Ex 106, N-Cyclopropyl-2-fluoro-4-(3-(2-(quinolin-6-yl)propan-2-yl)-3H-[1,2,3]triazolo[4,5-b]pyridin-5-yl)benzamide]",< 25,75 to 100
